Data on 62 molecules can be found in ChEMBL document CHEMBL1133609, “DoMCoSAR: a novel approach for establishing the docking mode that is consistent with the structure-activity relationship. Application to HIV-1 protease inhibitors and VEGF receptor tyrosine kinase inhibitors” (J Med Chem, 2000).

The target in one assay is Human immunodeficiency virus type 1 protease (Human immunodeficiency virus 1, UniProt Q72874). Put plainly: Inhibitory activity against HIV-1 protease.
On to `CC(C)(C)OC(=O)N[C@@H](Cc1ccccc1)[C@@H](O)C[C@@H](Cc1ccccc1)C(=O)N[C@@H]1c2ccccc2OC[C@H]1O`, for which half-maximal inhibition (IC50) required 0.00018 µM. In other words, the sub-nanomolar range.

`CC(C)(C)OC(=O)N[C@@H](Cc1ccccc1)[C@@H](O)C[C@@H](Cc1ccccc1)C(=O)N[C@@H]1c2ccccc2[C@@H](O)[C@H]1O` gave an IC50 of 0.0001 µM. The same measure, in the same setting: next, `Cc1ccc(C[C@H](C[C@H](O)[C@H](Cc2ccccc2)NC(=O)OC(C)(C)C)C(=O)N[C@@H]2c3ccccc3C[C@H]2O)cc1`: 0.00029 µM.

On to `CC(C)(C)OC(=O)N[C@@H](Cc1ccccc1)[C@@H](O)C[C@@H](CSc1ccccc1)C(=O)N[C@@H]1c2ccccc2C[C@H]1O`, for which half-maximal inhibition (IC50) required 0.00025 µM. Take `CC(C)(C)OC(=O)N[C@@H](Cc1ccccc1)[C@@H](O)C[C@@H](Cc1ccccc1)C(=O)N[C@H]1CCc2ccccc21`: the IC50 was 0.0343 µM.

As for `CC(C)(C)OC(=O)N[C@@H](Cc1ccccc1)[C@@H](O)C[C@@H](Cc1ccc(C(F)(F)F)cc1)C(=O)N[C@@H]1c2ccccc2C[C@H]1O`, inhibition was half-maximal at 0.00026 µM (IC50).

For the molecule `CC(C)(C)OC(=O)N[C@@H](Cc1ccccc1)[C@@H](O)C[C@@H](Cc1ccccc1)C(=O)N[C@@H]1c2ccccc2CC[C@H]1O`, the IC50 is 0.0007 µM. Still for that read-out and setting: next, `CC(C)(C)OC(=O)N[C@@H](Cc1ccccc1)[C@@H](O)C[C@@H](Cc1ccc(N)cc1)C(=O)N[C@@H]1c2ccccc2C[C@H]1O`: 0.00031 µM; `CC(C)(C)OC(=O)N[C@@H](Cc1ccccc1)[C@@H](O)C[C@@H](Cc1ccccc1)C(=O)N[C@@H]1c2ccccc2C[C@H]1O`: 0.00025 µM; `CC(C)(C)OC(=O)N[C@@H](Cc1ccccc1)[C@@H](O)C[C@@H](CC(=O)c1ccccc1)C(=O)N[C@@H]1c2ccccc2C[C@H]1O`: 0.00542 µM. `CC(C)(C)OC(=O)N[C@@H](Cc1ccccc1)[C@@H](O)C[C@@H](Cc1ccc(O)cc1)C(=O)N[C@@H]1c2ccccc2C[C@H]1O`: the IC50 was 0.00016 µM. On to `CC(C)(C)OC(=O)N[C@@H](Cc1ccccc1)[C@@H](O)CCC(=O)N[C@@H]1c2ccccc2C[C@H]1O`, for which the midpoint of inhibition, the IC50, lay at 2.94 µM. For `CC(C)(C)OC(=O)N[C@@H](Cc1ccccc1)[C@@H](O)C[C@@H](Cc1ccc(C(C)(C)C)cc1)C(=O)N[C@@H]1c2ccccc2C[C@H]1O`, inhibition was half-maximal at 0.00017 µM (IC50). Against the preceding molecule, the IC50 is about 17000-fold lower. Still for that read-out and setting: next, `CC(C)(C)OC(=O)N[C@@H](Cc1ccccc1)[C@@H](O)C[C@@](C)(Cc1ccccc1)C(=O)N[C@@H]1c2ccccc2C[C@H]1O`: 0.00771 µM; `C=CC[C@H](C[C@H](O)[C@H](Cc1ccccc1)NC(=O)OC(C)(C)C)C(=O)N[C@@H]1c2ccccc2C[C@H]1O`: 0.0275 µM.

In turn, `COC(=O)[C@@H]1Cc2ccccc2[C@H]1NC(=O)[C@H](Cc1ccccc1)C[C@H](O)[C@H](Cc1ccccc1)NC(=O)OC(C)(C)C` had a concentration for half-maximal inhibition (IC50) of 0.0662 µM.

On to `CC(C)(C)OC(=O)N[C@@H](Cc1ccccc1)[C@@H](O)C[C@@H](Cc1ccncc1)C(=O)N[C@@H]1c2ccccc2C[C@H]1O`, for which the IC50 is 0.00053 µM. Against the preceding molecule, the IC50 is about 120-fold lower. With `CC(C)(C)OC(=O)N[C@@H](Cc1ccccc1)[C@@H](O)C[C@@H](Cc1c(F)c(F)c(F)c(F)c1F)C(=O)N[C@@H]1c2ccccc2C[C@H]1O`, half-maximal inhibition (IC50) required 0.0006 µM. The same measure, in the same setting: in the case of `CC(C)(C)OC(=O)N[C@@H](Cc1ccccc1)[C@@H](O)C[C@@H](Cc1ccc([N+](=O)[O-])cc1)C(=O)N[C@@H]1c2ccccc2C[C@H]1O` it was 0.00027 µM; in that of `CC(C)(C)OC(=O)N[C@@H](Cc1ccccc1)[C@@H](O)C[C@@H](C/C=C/c1ccccc1)C(=O)N[C@@H]1c2ccccc2C[C@H]1O`, 0.00023 µM. On the same count and under the same terms, in the case of `CC(C)(C)OC(=O)N[C@@H](Cc1ccccc1)[C@@H](O)C[C@@H](Cc1ccc(I)cc1)C(=O)N[C@@H]1c2ccccc2C[C@H]1O` it was 0.000719 µM.

With `CC(C)(C)OC(=O)N[C@@H](Cc1ccccc1)[C@@H](O)C[C@@H](Cc1ccccc1)C(=O)N[C@@H]1C=CC[C@H]1O`, half-maximal inhibition (IC50) was put at 0.00953 µM. With `CC(C)(C)OC(=O)N[C@@H](Cc1ccccc1)[C@@H](O)C[C@@H](CCCc1ccccc1)C(=O)N[C@@H]1c2ccccc2[C@@H](O)[C@H]1O`, half-maximal inhibition (IC50) required 0.00019 µM. Molecule `CC(C)(C)OC(=O)N[C@@H](Cc1ccccc1)[C@@H](O)C[C@@H](Cc1ccccc1)C(=O)N[C@@H]1CCCC[C@H]1O` showed an IC50 of 0.122 µM. Same read-out and setting: in the case of `CC(C)(C)OC(=O)N[C@@H](Cc1ccccc1)[C@@H](O)C[C@@H](Cc1ccccc1)C(=O)N[C@H]1c2ccccc2OC[C@@H]1O` it was 0.0406 µM.

The target of the next assay is Vascular endothelial growth factor receptor 2 (Mus musculus, UniProt P35918). Put plainly: Inhibitory activity against vascular endothelial growth factor receptor 2 (FLK1).
Vascular endothelial growth factor receptor 2, sequence (P35918 whole entry): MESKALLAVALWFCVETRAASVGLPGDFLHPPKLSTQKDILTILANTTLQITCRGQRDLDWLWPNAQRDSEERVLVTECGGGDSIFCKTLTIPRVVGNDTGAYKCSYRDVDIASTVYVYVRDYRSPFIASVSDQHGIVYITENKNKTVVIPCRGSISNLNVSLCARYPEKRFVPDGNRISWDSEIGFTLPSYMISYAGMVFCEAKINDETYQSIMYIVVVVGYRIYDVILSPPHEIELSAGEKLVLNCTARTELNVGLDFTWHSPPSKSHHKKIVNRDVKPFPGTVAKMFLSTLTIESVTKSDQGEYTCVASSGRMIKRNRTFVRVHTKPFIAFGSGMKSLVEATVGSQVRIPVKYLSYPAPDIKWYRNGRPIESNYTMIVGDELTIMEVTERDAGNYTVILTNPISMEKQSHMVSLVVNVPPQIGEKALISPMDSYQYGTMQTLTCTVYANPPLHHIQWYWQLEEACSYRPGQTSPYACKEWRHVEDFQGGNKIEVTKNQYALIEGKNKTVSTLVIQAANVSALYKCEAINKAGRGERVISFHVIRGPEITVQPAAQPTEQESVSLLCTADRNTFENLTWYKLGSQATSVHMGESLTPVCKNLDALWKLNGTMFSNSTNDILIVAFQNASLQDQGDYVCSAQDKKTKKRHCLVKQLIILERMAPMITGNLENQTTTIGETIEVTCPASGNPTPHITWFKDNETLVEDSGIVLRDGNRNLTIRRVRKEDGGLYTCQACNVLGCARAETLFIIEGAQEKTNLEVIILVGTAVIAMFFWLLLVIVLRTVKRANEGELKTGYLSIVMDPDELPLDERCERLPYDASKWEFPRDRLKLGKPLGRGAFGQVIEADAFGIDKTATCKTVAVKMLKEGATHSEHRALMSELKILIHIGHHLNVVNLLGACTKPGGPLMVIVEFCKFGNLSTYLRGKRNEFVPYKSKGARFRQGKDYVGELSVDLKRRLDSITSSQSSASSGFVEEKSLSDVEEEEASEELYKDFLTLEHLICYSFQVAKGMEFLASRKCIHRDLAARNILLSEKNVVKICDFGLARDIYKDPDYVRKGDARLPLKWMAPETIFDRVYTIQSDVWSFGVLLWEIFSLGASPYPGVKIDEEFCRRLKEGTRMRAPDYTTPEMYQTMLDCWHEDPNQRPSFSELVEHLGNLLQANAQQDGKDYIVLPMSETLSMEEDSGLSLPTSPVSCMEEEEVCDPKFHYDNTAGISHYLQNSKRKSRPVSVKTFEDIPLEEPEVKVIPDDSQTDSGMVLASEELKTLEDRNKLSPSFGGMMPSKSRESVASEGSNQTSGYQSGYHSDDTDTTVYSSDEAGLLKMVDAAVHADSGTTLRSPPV
For `O=C1Nc2ccccc2/C1=C\c1cc(Br)cs1`, it took 1000 µM to reach half-maximal inhibition (IC50). Consider `CCc1ccc(/C=C2/C(=O)Nc3ccccc32)s1`, for which the IC50 is 3.39 µM. Molecule `Cn1cc(Cl)c(/C=C2/C(=O)Nc3ccccc32)n1` gave an IC50 of 1000 µM. The same measure, in the same setting: next, `CC(C)c1cc(/C=C2/C(=O)Nc3ccccc32)cc(C(C)C)c1O`: 8.51 µM; `O=C1Nc2ccccc2/C1=C\c1ccc(N2CCCC2)cc1`: 3.02 µM. Same read-out and setting: in the case of `CCOC(=O)c1c(C)[nH]c(/C=C2/C(=O)Nc3ccccc32)c1C` it was 0.0708 µM; in that of `COc1ccc(/C=C2/C(=O)Nc3ccccc32)cc1C(C)(C)C`, 1000 µM; in that of `O=C1Nc2ccccc2/C1=C\c1ccc(O)cc1`, 2.69 µM. Consider `CN(C)c1ccc(/C=C2/C(=O)Nc3cc(F)ccc32)cc1`, for which the IC50 was 4.57 µM. Take `Cc1cc(C)c(/C=C2/C(=O)Nc3cc(F)ccc32)[nH]1`: the 50% inhibitory concentration (IC50) was 0.708 µM.

In turn, `Cc1c[nH]c(/C=C2/C(=O)Nc3ccccc32)c1C` had an IC50 of 2.69 µM.

Turning to `CN(C)c1ccc(/C=C2/C(=O)Nc3ccccc32)cc1`, the half-inhibitory concentration (IC50) is 0.794 µM. In turn, `O=C1Nc2ccccc2/C1=C\c1ccco1` had an IC50 of 1000 µM.

Regarding `C/C(=C1\C(=O)Nc2ccccc21)c1ccc(N2CCCCC2)cc1`, it took 1000 µM to reach half-maximal inhibition (IC50). On the same count and under the same terms, next, `O=CN1CCN(c2ccc(/C=C3\C(=O)Nc4ccccc43)cc2)CC1`: 5.13 µM; `CCc1c(C)[nH]c(/C=C2/C(=O)Nc3ccccc32)c1C`: 1000 µM.

`O=C1Nc2ccccc2/C1=C\c1ccc(Br)cc1` had an IC50 of 1000 µM. In the case of `COc1ccc(/C=C2/C(=O)Nc3ccccc32)cc1`, the IC50 was 7.59 µM. On the same count and under the same terms, in the case of `CN1C(=O)/C(=C/c2ccc(Br)cc2)c2ccccc21` it was 1000 µM; in that of `Cc1c[nH]c(/C=C2/C(=O)Nc3ccccc32)c1CCC(O)O`, 0.398 µM; in that of `CCc1c(/C=C2/C(=O)Nc3ccccc32)[nH]c(C)c1C`, 0.141 µM. On the same count and under the same terms, in the case of `Cn1cccc1/C=C1/C(=O)Nc2ccccc21` it was 20.4 µM; in that of `O=C1Nc2ccccc2/C1=C\c1n[nH]cc1Cl`, 7.41 µM. In turn, `O=C1Nc2ccccc2/C1=C\c1ccc(N2CCOCC2)cc1` gave a 50% inhibitory concentration (IC50) of 2.51 µM. Against the preceding molecule, the IC50 is about 3-fold lower. The molecule `CC(C)(C)c1cc(/C=C2/C(=O)Nc3ccccc32)cc(Br)c1O` gave a concentration for half-maximal inhibition (IC50) of 46.8 µM. This IC50 lies about 19-fold higher than the previous one. With `O=C1Nc2cc(F)ccc2/C1=C\c1ccc[nH]1`, the concentration for half-maximal inhibition (IC50) was 0.708 µM. In the case of `CN(C)c1ccc(/C=C2/C(=O)N(C)c3ccccc32)cc1`, the midpoint of inhibition, the IC50, lay at 22.4 µM.

`CCOC(=O)c1c[nH]c(/C=C2/C(=O)Nc3ccccc32)c1C` showed an IC50 of 0.182 µM. Compared with the last molecule, the IC50 is about 120-fold lower. On the same count and under the same terms, next, `CC(C)(C)c1cc(/C=C2/C(=O)Nc3ccccc32)cc(C(C)(C)C)c1O`: 8.32 µM. Still for that read-out and setting: next, `O=C1Nc2ccccc2/C1=C\c1ccc(N2CCCCC2)cc1`: 4.47 µM; `CSc1ccc(/C=C2/C(=O)Nc3ccccc32)s1`: 2.34 µM. Molecule `COc1ccc(/C=C2\C(=O)Nc3ccc(Cl)cc32)cc1C(C)(C)C` showed an IC50 of 1000 µM.

The molecule `CSc1ccc(/C=C2\C(=O)Nc3cccc(C)c32)s1` showed a half-inhibitory concentration (IC50) of 1000 µM.

`COc1c(Br)cc(/C=C2\C(=O)Nc3ccc(Cl)cc32)cc1C(C)(C)C` showed an IC50 of 1000 µM. This counts as millimolar.

`O=C1Nc2ccc(Br)cc2/C1=C/c1ccc(N2CCOCC2)cc1`: the concentration for half-maximal inhibition (IC50) was 50.1 µM. This IC50 lies about 20-fold lower than the previous one. `O=C1Nc2ccc([N+](=O)[O-])cc2/C1=C/c1ccc[nH]1` had an IC50 of 1000 µM.

On to `O=CN1CCN(c2ccc(/C=C3\C(=O)Nc4ccc(Br)cc43)cc2)CC1`, for which the IC50 is 100 µM. This IC50 is about 10-fold lower than that of the molecule before.

A word on the IC50: it is the midpoint of a concentration-inhibition curve.
